Laboratory results published in patent publication US20160212997A1, “AGRICULTURAL CHEMICALS” (REDAG CROP PROTECTION LTD, priority 2013, published 2016).
Like-named read-outs stand apart in the source and are kept apart here.

Assays:
[1] = system: caterpillars, a mixture of Mamestra brassicae and Lacanobia oleracea; experiment: Potter tower spray on caterpillars, knockdown and mortality; format: in vivo; conditions: read-out: Average of % corrected affected; for pest or weed control at 0.003125 % strength / pest or weed control at 0.00625 % strength / pest or weed control at 0.0125 % strength / pest or weed control at 0.025 % strength / pest or weed control at 0.05 % strength / pest or weed control at 0.1 % strength: Caterpillars; for pest or weed control at 0.003125 % strength: 0.003125 % w/v; for pest or weed control at 0.00625 % strength: 0.00625 % w/v; for pest or weed control at 0.0125 % strength: 0.0125 % w/v; for pest or weed control at 0.025 % strength: 0.025 % w/v; for pest or weed control at 0.05 % strength: 0.05 % w/v; for pest or weed control at 0.1 % strength: 0.1 % w/v
Text: (§1) Myzus persicae, Cabbage moth, Mamestra brassicae, diamond back moths, Plutella xylostella, red spider mites, Tetranychus urticae, whitefly, Trialeurodes vaporariorum, were obtained from specified laboratory cultures. Mixed sex and age aphids and mites, moth larvae and whitefly scale infested leaves were used in the experiments. Environmental conditions were closely monitored and recorded and were within the optimal range of the target species.
(§2) The compounds were screened at a range of five concentrations, diluted in DMSO. Some of the compounds were screened against aphids, whitefly and red spider mites and other compounds were screened against cabbage moth, and diamond black moths. A carrier only and an untreated control will also be conducted. Treatments were applied directly onto the insects within Petri dishes, using a potter tower.
(§3) Twenty mites and ten aphids, scales and moth larvae were placed within a Petri dish, lined with a suitable leaf disc on a damp cotton wool pad. Scales were already on leaves. The Petri dishes were then sprayed using a potter tower. The number of knocked down and anthropods were assessed at 24 and 48 hours post treatment. Five replicates were be performed for each treatment, for each species.
(§4) For Tables 2, 4, 5 and 6, the compounds were diluted in DMSO containing 1% v/v Tween 20™. For Tables 2, 4, 5 and 6, the caterpillars were a mixture of Mamestra brassicae and Lacanobia oleracea.

aphids, Myzus persicae = experiment: Potter tower spray on aphids, knockdown and mortality; format: in vivo; conditions: Myzus persicae, read-out: Average of % corrected affected; for pest or weed control at 0.003125 % strength / pest or weed control at 0.00625 % strength / pest or weed control at 0.0125 % strength / pest or weed control at 0.025 % strength / pest or weed control at 0.05 % strength / pest or weed control at 0.1 % strength: Aphids; for pest or weed control at 0.003125 % strength: 0.003125 % w/v; for pest or weed control at 0.00625 % strength: 0.00625 % w/v; for pest or weed control at 0.0125 % strength: 0.0125 % w/v; for pest or weed control at 0.025 % strength: 0.025 % w/v; for pest or weed control at 0.05 % strength: 0.05 % w/v; for pest or weed control at 0.1 % strength: 0.1 % w/v
Text: The compounds were screened for insecticidal efficacy against aphids, Myzus persicae, Cabbage moth, Mamestra brassicae, diamond black moths, Plutella xylostella, red spider mites, Tetranychus urticae, whitefly, Trialeurodes vaporariorum, in terms of knockdown and mortality.
as §1, §2, §3, §4

[2] = 24 h, 24 hours post application
[3] = 48 h, 48 hours post application

Row | Compound | pest or weed control at 0.000125 % strength ([1]; 24 h) | pest or weed control at 0.00025 % strength ([1]; 24 h) | pest or weed control at 0.0005 % strength ([1]; 24 h) | pest or weed control at 0.001 % strength ([1]; 24 h) | pest or weed control at 0.00625 % strength [1, 2] | pest or weed control at 0.0125 % strength [1, 2] | pest or weed control at 0.025 % strength [1, 2] | pest or weed control at 0.05 % strength [1, 2] | pest or weed control at 0.00625 % strength [1, 3] | pest or weed control at 0.0125 % strength [1, 3] | pest or weed control at 0.025 % strength [1, 3] | pest or weed control at 0.05 % strength [1, 3] | pest or weed control at 0.00625 % strength (aphids, Myzus persicae; [2]) | pest or weed control at 0.0125 % strength (aphids, Myzus persicae; [2]) | pest or weed control at 0.025 % strength (aphids, Myzus persicae; [2]) | pest or weed control at 0.05 % strength (aphids, Myzus persicae; [2]) | pest or weed control at 0.00625 % strength (aphids, Myzus persicae; [3]) | pest or weed control at 0.0125 % strength (aphids, Myzus persicae; [3]) | pest or weed control at 0.025 % strength (aphids, Myzus persicae; [3]) | pest or weed control at 0.05 % strength (aphids, Myzus persicae; [3]) | also measured
1 | Cc1cc(C2=NOC(c3cc(Cl)cc(Cl)c3)(C(F)(F)F)C2)ccc1SC1CCNC1=O (stereo not shown) [Compound 21, 3-[4-[5-(3,5-dichlorophenyl)-5-(trifluoromethyl)-4H-isoxazol-3-yl]-2-methyl-phenyl]sulfanylpyrrolidin-2-one] | 1 to 19% | 1 to 19% | 0% | 1 to 19% | – | – | – | – | – | – | – | – | – | – | – | – | – | – | – | – | pest or weed control at 0.002 % strength ([1]; 24 h): 1 to 19%; pest or weed control at 0.000125 % strength ([1]; 48 h): 1 to 19%; pest or weed control at 0.00025 % strength ([1]; 48 h): 1 to 19%; pest or weed control at 0.0005 % strength ([1]; 48 h): 1 to 19%; pest or weed control at 0.001 % strength ([1]; 48 h): 1 to 19%; pest or weed control at 0.002 % strength ([1]; 48 h): 1 to 19%; pest or weed control at 0.000125 % strength (aphids, Myzus persicae; 24 h): 20 to 39%; pest or weed control at 0.00025 % strength (aphids, Myzus persicae; 24 h): 1 to 19%; pest or weed control at 0.0005 % strength (aphids, Myzus persicae; 24 h): 1 to 19%; pest or weed control at 0.001 % strength (aphids, Myzus persicae; 24 h): 1 to 19%; pest or weed control at 0.002 % strength (aphids, Myzus persicae; 24 h): 1 to 19%; pest or weed control at 0.000125 % strength (aphids, Myzus persicae; 48 h): 20 to 39%; pest or weed control at 0.00025 % strength (aphids, Myzus persicae; 48 h): 1 to 19%; pest or weed control at 0.0005 % strength (aphids, Myzus persicae; 48 h): 1 to 19%; pest or weed control at 0.001 % strength (aphids, Myzus persicae; 48 h): 1 to 19%; pest or weed control at 0.002 % strength (aphids, Myzus persicae; 48 h): 20 to 39%
2 | O=C(Nc1ccc(-c2cccnc2)oc1=O)C1CC1 [Compound 25, N-[2-Oxo-6-(3-pyridyl)pyran-3-yl]cyclopropanecarboxamide, reference compound] | – | – | – | – | 1 to 19% | 1 to 19% | 1 to 19% | 1 to 19% | 1 to 19% | 1 to 19% | 20 to 39% | 1 to 19% | 20 to 39% | 20 to 39% | 40 to 59% | 1 to 19% | 20 to 39% | 20 to 39% | 60 to 79% | 40 to 59% | pest or weed control at 0.003125 % strength [1, 2]: 0%; pest or weed control at 0.003125 % strength [1, 3]: 1 to 19%; pest or weed control at 0.003125 % strength (aphids, Myzus persicae; [2]): 1 to 19%; pest or weed control at 0.003125 % strength (aphids, Myzus persicae; [3]): 1 to 19%
3 | Cc1cc(C2=NOC(c3cc(Cl)cc(Cl)c3)(C(F)(F)F)C2)ccc1SCC(=O)NCC(F)(F)F (stereo not shown) [Compound 15, 2-[4-[5-(3,5-dichlorophenyl)-5-(trifluoromethyl)-4H-isoxazol-3-yl]-2-methyl-phenyl]sulfanyl-N-(2,2,2-trifluoroethyl)acetamide, reference compound] | 1 to 19% | 1 to 19% | 1 to 19% | 1 to 19% | – | – | – | – | – | – | – | – | – | – | – | – | – | – | – | – | pest or weed control at 0.002 % strength ([1]; 24 h): 1 to 19%; pest or weed control at 0.000125 % strength ([1]; 48 h): 0%; pest or weed control at 0.00025 % strength ([1]; 48 h): 1 to 19%; pest or weed control at 0.0005 % strength ([1]; 48 h): 1 to 19%; pest or weed control at 0.001 % strength ([1]; 48 h): 1 to 19%; pest or weed control at 0.002 % strength ([1]; 48 h): 1 to 19%; pest or weed control at 0.000125 % strength (aphids, Myzus persicae; 24 h): 1 to 19%; pest or weed control at 0.00025 % strength (aphids, Myzus persicae; 24 h): 1 to 19%; pest or weed control at 0.0005 % strength (aphids, Myzus persicae; 24 h): 1 to 19%; pest or weed control at 0.001 % strength (aphids, Myzus persicae; 24 h): 1 to 19%; pest or weed control at 0.002 % strength (aphids, Myzus persicae; 24 h): 0%; pest or weed control at 0.000125 % strength (aphids, Myzus persicae; 48 h): 1 to 19%; pest or weed control at 0.00025 % strength (aphids, Myzus persicae; 48 h): 1 to 19%; pest or weed control at 0.0005 % strength (aphids, Myzus persicae; 48 h): 1 to 19%; pest or weed control at 0.001 % strength (aphids, Myzus persicae; 48 h): 20 to 39%; pest or weed control at 0.002 % strength (aphids, Myzus persicae; 48 h): 20 to 39%
4 | N#CCN(Cc1ccc(Cl)nc1)C1=CC(=O)OC1 [Compound 7, 2-[(6-Chloro-3-pyridyl)methyl-(5-oxo-2H-furan-3-yl)amino]acetonitrile] | – | – | – | – | 1 to 19% | 1 to 19% | 1 to 19% | 0% | 1 to 19% | 0% | 1 to 19% | 0% | 1 to 19% | 20 to 39% | 20 to 39% | 40 to 59% | 40 to 59% | 40 to 59% | 40 to 59% | 40 to 59% | pest or weed control at 0.1 % strength [1, 2]: 1 to 19%; pest or weed control at 0.1 % strength [1, 3]: 1 to 19%; pest or weed control at 0.1 % strength (aphids, Myzus persicae; [2]): 1 to 19%; pest or weed control at 0.1 % strength (aphids, Myzus persicae; [3]): 1 to 19%
5 | COC(CN(Cc1ccc(Cl)nc1)C1=CC(=O)OC1)OC [Compound 5, 3-[(6-Chloro-3-pyridyl)methyl-(2,2-dimethoxyethyl)amino]-2H-furan-5-one] | – | – | – | – | 1 to 19% | 1 to 19% | 1 to 19% | 1 to 19% | 1 to 19% | 1 to 19% | 1 to 19% | 1 to 19% | 1 to 19% | 1 to 19% | 1 to 19% | 20 to 39% | 1 to 19% | 1 to 19% | 1 to 19% | 20 to 39% | pest or weed control at 0.1 % strength [1, 2]: 1 to 19%; pest or weed control at 0.1 % strength [1, 3]: 20 to 39%; pest or weed control at 0.1 % strength (aphids, Myzus persicae; [2]): 1 to 19%; pest or weed control at 0.1 % strength (aphids, Myzus persicae; [3]): 1 to 19%
